# Test results reported in patent publication US8959984B2, “Proteome-wide quantification of small molecule binding to cellular target proteins” (priority 2007, dated 2015).
# Where “and” joins values, the source holds several entries; their conditions need not be identical. Equal entries are not always repeated.
# Columns and labels:
# Assay in all cases: binding to AX14596 beads (HeLa lysate, SILAC MS)
# SNRPE = SNRPE (Homo sapiens, UniProt P62304)
# EGFR = molecular target: T1, EGFR (Homo sapiens, UniProt P00533)
# T1 construct: endogenous in cells; host or cells: HeLa S3
# T1 sequence (P00533 25-1210): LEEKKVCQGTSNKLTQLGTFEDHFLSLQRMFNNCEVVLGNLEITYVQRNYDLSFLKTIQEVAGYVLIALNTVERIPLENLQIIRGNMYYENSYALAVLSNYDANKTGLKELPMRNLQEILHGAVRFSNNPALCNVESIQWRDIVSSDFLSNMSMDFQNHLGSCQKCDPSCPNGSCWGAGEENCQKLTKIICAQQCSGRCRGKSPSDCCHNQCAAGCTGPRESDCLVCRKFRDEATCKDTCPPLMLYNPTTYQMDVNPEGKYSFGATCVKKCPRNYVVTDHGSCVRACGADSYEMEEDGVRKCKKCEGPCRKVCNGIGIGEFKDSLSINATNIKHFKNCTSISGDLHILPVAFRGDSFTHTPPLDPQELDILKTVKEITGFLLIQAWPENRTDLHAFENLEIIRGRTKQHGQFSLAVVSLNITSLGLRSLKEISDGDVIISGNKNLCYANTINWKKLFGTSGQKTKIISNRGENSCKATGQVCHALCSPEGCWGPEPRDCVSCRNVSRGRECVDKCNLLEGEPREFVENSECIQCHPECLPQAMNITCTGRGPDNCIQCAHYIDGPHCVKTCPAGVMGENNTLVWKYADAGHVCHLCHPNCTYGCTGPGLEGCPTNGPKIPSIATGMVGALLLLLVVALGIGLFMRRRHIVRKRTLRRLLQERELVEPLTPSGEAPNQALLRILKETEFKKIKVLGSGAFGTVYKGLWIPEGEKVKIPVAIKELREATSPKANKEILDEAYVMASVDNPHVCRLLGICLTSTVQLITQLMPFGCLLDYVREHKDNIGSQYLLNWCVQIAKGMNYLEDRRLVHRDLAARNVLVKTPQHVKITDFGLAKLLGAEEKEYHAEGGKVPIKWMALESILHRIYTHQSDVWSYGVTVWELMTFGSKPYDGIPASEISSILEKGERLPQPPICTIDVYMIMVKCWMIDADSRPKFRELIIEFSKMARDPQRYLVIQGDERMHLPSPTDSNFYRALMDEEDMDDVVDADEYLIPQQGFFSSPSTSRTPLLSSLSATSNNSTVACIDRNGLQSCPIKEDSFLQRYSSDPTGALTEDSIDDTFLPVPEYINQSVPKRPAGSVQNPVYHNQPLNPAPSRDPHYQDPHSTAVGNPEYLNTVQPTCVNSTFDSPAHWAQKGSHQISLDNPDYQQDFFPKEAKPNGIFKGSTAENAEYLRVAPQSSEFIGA
# [1] = molecular target: p38a (MAPK14, IPI00002857) (Homo sapiens, UniProt Q16539)
# p38a (MAPK14, IPI00002857), sequence (Q16539 whole entry): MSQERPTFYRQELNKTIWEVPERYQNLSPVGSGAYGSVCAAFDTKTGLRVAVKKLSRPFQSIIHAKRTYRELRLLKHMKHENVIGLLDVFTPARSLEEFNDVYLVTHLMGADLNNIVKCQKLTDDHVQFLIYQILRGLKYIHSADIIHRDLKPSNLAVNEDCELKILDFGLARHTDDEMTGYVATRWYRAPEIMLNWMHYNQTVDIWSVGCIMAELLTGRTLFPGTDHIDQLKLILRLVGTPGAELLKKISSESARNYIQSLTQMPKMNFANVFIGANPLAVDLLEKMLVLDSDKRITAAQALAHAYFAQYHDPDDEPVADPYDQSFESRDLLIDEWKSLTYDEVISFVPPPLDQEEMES
# SgK085 (MYLK3) = molecular target: T2, SgK085 (MYLK3) (Homo sapiens, UniProt Q32MK0)
# T2 sequence (Q32MK0 1-819): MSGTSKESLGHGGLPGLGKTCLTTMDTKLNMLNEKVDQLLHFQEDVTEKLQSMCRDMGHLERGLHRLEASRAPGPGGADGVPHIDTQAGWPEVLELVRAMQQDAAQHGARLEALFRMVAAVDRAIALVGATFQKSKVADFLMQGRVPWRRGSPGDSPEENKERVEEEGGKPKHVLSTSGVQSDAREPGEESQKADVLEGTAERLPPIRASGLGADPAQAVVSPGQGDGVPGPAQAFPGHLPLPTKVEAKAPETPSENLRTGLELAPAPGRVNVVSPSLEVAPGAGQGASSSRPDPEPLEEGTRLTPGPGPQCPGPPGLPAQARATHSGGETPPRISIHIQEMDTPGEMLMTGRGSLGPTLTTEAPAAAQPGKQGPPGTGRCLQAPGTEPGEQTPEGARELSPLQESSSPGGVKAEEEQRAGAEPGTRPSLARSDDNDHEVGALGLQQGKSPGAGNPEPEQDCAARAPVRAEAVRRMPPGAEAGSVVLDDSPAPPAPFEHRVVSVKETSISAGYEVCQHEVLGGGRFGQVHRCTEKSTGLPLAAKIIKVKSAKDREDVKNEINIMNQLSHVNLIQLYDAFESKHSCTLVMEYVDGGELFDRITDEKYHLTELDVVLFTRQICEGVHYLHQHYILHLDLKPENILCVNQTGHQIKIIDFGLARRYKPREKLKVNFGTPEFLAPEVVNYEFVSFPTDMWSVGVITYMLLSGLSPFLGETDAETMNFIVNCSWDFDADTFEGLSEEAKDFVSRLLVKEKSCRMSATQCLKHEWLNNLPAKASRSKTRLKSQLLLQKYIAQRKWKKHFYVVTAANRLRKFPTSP
# MET = MET (Homo sapiens, UniProt P08581)
# MET, sequence (P08581 25-1390): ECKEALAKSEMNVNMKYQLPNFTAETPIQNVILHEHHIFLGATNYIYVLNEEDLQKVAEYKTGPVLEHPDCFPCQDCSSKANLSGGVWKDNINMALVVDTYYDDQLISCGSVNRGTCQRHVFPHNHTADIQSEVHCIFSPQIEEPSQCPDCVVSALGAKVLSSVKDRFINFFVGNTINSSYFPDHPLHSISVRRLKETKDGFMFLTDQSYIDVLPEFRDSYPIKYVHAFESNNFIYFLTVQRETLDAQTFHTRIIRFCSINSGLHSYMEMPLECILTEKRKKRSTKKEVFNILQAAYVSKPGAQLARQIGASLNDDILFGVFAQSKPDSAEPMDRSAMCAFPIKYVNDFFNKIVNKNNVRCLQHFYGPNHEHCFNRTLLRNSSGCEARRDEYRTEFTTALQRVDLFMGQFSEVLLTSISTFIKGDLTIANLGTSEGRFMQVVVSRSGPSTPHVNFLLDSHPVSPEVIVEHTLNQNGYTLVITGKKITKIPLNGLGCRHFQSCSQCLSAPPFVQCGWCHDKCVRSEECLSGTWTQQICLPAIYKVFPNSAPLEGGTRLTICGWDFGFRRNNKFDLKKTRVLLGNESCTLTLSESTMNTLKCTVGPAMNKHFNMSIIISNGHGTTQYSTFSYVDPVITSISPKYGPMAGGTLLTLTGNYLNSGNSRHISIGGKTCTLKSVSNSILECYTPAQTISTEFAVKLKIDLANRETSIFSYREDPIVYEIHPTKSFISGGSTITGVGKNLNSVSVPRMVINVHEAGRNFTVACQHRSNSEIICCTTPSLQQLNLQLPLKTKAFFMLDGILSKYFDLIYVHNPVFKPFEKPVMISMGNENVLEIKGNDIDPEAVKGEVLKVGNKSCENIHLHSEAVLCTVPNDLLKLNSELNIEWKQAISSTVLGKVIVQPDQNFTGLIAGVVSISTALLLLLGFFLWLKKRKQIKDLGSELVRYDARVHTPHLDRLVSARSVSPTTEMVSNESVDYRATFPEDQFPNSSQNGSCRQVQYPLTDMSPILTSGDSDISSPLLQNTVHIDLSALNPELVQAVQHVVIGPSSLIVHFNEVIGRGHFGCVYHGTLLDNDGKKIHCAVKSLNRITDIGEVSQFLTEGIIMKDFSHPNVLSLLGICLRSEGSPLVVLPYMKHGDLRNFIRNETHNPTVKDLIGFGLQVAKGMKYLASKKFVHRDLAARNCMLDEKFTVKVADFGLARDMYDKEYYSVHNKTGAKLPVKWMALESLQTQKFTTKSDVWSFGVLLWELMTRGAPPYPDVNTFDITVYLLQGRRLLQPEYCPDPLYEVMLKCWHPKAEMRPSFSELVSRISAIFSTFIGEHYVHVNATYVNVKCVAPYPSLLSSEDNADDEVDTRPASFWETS
# LYN = LYN (Homo sapiens, UniProt P07948)
# LYN, sequence (P07948 whole entry): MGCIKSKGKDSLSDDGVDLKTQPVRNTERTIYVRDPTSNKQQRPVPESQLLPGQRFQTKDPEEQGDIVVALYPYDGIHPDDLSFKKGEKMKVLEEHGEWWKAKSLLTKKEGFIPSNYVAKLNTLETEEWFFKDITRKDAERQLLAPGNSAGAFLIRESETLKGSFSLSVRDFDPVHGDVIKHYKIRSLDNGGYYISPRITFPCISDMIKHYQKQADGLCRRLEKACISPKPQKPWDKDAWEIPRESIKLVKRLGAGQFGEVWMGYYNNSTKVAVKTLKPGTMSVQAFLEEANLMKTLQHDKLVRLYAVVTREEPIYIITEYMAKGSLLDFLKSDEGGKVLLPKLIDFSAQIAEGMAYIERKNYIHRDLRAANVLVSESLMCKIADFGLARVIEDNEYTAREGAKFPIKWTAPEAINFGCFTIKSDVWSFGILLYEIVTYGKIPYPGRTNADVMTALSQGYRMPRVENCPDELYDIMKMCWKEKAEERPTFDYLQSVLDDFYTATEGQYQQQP
# BRK (PTK6) = molecular target: T3, BRK (PTK6) (Homo sapiens, UniProt Q13882)
# T3 construct: endogenous in cells; host or cells: HeLa S3
# T3 sequence (Q13882 whole entry): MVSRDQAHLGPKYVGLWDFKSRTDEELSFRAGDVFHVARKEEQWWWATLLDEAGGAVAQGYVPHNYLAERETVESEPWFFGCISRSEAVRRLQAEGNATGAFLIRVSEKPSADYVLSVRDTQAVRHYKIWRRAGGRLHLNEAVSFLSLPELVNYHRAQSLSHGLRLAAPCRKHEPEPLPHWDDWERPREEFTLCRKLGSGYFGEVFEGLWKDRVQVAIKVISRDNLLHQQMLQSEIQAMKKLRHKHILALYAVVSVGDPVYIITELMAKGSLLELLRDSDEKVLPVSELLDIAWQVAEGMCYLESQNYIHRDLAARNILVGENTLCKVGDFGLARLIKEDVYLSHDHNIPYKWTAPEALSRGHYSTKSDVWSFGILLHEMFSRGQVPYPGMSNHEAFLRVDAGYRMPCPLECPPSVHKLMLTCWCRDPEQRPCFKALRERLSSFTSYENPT
# [2] = molecular target: p38a (MAPK14, IPI00221141) (Homo sapiens, UniProt Q16539)
# p38a (MAPK14, IPI00221141), sequence (Q16539 1-360 isoform Q16539-2): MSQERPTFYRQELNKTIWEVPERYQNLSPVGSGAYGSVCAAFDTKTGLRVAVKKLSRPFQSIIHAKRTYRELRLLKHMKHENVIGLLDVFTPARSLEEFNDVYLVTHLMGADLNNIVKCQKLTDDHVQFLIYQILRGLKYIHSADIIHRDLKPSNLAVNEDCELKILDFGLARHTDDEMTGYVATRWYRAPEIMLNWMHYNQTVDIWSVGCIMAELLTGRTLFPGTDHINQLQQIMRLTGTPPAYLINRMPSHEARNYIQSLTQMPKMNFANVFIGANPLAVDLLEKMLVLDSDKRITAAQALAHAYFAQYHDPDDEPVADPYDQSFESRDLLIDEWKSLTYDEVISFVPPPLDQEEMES
# SNRPE, sequence (P62304 whole entry): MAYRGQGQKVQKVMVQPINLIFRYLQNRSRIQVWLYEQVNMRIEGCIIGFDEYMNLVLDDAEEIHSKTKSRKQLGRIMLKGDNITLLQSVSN
smiles,measurement,setting,value
COc1cc2ncnc(Nc3ccc(F)c(Cl)c3)c2cc1OCCCN [AX14596],Ki,SNRPE,106 µM
same,r (3 mg/1 mg lysate),SNRPE,2.57
same,r (5 h/2.5 h inc. time),SNRPE,1.88
same,rAVERAGE (2. inc/1. inc),SNRPE,0.51
same,rAVERAGE (control/1. inc),SNRPE,0.07
same,Ki,EGFR,44 µM and 44.5 µM
same,r (3 mg/1 mg lysate),EGFR,2.65
same,r (5 h/2.5 h inc. time),EGFR,0.90
same,rAVERAGE (2. inc/1. inc),EGFR,0.31
same,rAVERAGE (control/1. inc),EGFR,0.03
same,% BOUND,EGFR; bound to AX14596 beads,69%
same,Ki,[1],332 µM
same,r (3 mg/1 mg lysate),[1],2.74
same,r (5 h/2.5 h inc. time),[1],1.15
same,rAVERAGE (2. inc/1. inc),[1],0.77
same,rAVERAGE (control/1. inc),[1],0.06
same,Ki,SgK085 (MYLK3),186 µM
same,r (3 mg/1 mg lysate),SgK085 (MYLK3),2.56
same,r (5 h/2.5 h inc. time),SgK085 (MYLK3),0.97
same,rAVERAGE (2. inc/1. inc),SgK085 (MYLK3),0.65
same,rAVERAGE (control/1. inc),SgK085 (MYLK3),0.00
same,Ki,MET,267 µM
same,r (3 mg/1 mg lysate),MET,2.30
same,r (5 h/2.5 h inc. time),MET,1.12
same,rAVERAGE (2. inc/1. inc),MET,0.73
same,rAVERAGE (control/1. inc),MET,0.06
same,% BOUND,MET; bound to AX14596 beads,27%
same,Ki,LYN,195 µM
same,r (3 mg/1 mg lysate),LYN,2.14
same,r (5 h/2.5 h inc. time),LYN,0.98
same,rAVERAGE (2. inc/1. inc),LYN,0.66
same,rAVERAGE (control/1. inc),LYN,0.07
same,% BOUND,LYN; bound to AX14596 beads,34%
same,Ki,BRK (PTK6),45 µM and 45.4 µM
same,r (3 mg/1 mg lysate),BRK (PTK6),2.56
same,r (5 h/2.5 h inc. time),BRK (PTK6),0.96
same,rAVERAGE (2. inc/1. inc),BRK (PTK6),0.31
same,rAVERAGE (control/1. inc),BRK (PTK6),0.02
same,% BOUND,BRK (PTK6); bound to AX14596 beads,69%
same,Ki,[2],168 µM
same,r (3 mg/1 mg lysate),[2],2.87
same,rAVERAGE (2. inc/1. inc),[2],0.63
same,rAVERAGE (control/1. inc),[2],0.03
